The record followed here is patent US20080167314A1, “Condensed Imidazole Compound And Use Thereof” (priority 2004, published 2008).

Assay [1] relates to MMP-13 production in human normal articular chondrocytes. The assay is described as follows: Measurement of MMP-13 production inhibitory activity in rhIL-1β-stimulated human normal articular chondrocytes (ELISA). Type of assay: cell-based. The note with it: Chondrocyte, rhIL-1β 0.1 ng/mL, 24 hr, MMP-13 in culture supernatant by ELISA. Here is the method: Measurement of MMP-13 Production Inhibitory Activity
Human normal articular chondrocytes (Camblex) were grown in a chondrocyte growth medium (CGM: Camblex), and the cells were suspended in a chondrocyte differentiation medium (CDM: Camblex) and plated on a 96 well plate at 2×10^4 cells/well (150 μL/well). After culturing for 3 days under 37° C., 5% CO2 conditions, the culture medium was exchanged to 0.1% BSA added α-modification of Eagle's (α-MEM: Gibco), and the cells were cultured for 4 hr. The compound was added thereto and, after culture for 1 hr, recombinant human IL-1β (rhIL-1β: R&D systems) was added at 0.1 ng/mL. After culture for 24 hr, the culture supernatant was recovered, and the concentration of MMP-13 in the culture supernatant was measured by the ELISA method (Amersham).
(In an ELISA, binding on a coated surface is turned into a signal by an enzyme label.)

The subject of assay [2] is TNF-α production in THP-1 cells. The assay is described as follows: Measurement of TNF-α production inhibitory activity in LPS-stimulated THP-1 cells (ELISA). Conditions: Homo sapiens, LPS 5 μg/mL, 4 hours, TNF-α in supernatant by ELISA. Type of assay: cell-based. Here is the method:
Measurement of TNF-α Production Inhibitory Activity
After THP-1 cells which had been cultured in PRMI 1640 medium (manufactured by Life Technologies, Inc.) containing 1% non-activated bovine fetal serum (manufactured by Life Technologies, Inc., U.S.A.) and 10 mM HEPES (pH 7.5) was plated on a 96-well plate to 1×10^5 cells/well, 1 μL test compound dissolved in DMSO was added to there. After incubation at 37° C. for 1 hour in a CO2 incubator, LPS (Wako Pure Chemicals) was added to the final concentration 5 μg/mL. After cultured at 37° C. for 4 hours in a CO2 incubator, the supernatant was obtained by centrifugation. The concentration of TNF-α in the supernatant was measured with ELISA (R&D System, Quantikine Kit). The concentration (IC50 value) necessary for inhibiting TNF-α production by 50% was calculated by PRIMS 2.01 (Graphpad Software).

The target in assay [3] is T1, active form p38 MAP kinase (Homo sapiens, UniProt Q16539).
T1 construct: made in house; host or cells: Sf-21 insect cells, baculovirus BAC-HP38 co-infected with BAC-caMKK3
As to the kind of experiment: Measurement of the p38 MAP kinase inhibitory activity (32P uptake into Myelin Basic Protein). Format: biochemical. Conditions: 260 ng active form p38 MAP kinase, 1 μg Myelin Basic Protein, 2.5 μM ATP solution, 30° C. for 60 minutes. The method, then:
(1) Cloning of Human p38 MAP Kinase Gene and Preparation of Recombinant Baculovirus
Cloning of human p38 MAP kinase gene was performed by a PCR method using a primer set P38-U:
(3) Preparation of Active Form p38 MAP Kinase
The Sf-21 cells were seeded on 100 ml Sf-900II SFM medium (GIBCOBRL) to 1×10^6 cells/mL and cultured at 27° C. for 24 hours. After each 0.2 mL of the virusstock BAC-HP38 of recombinant Baculovirus and BAC-caMKK3 were added, the culturing was further performed for 48 hours. After the cells were separated from the culturing solution by centrifugation (3000 rpm, 10 min), the cells were washed twice with PBS. After the cells were suspended in 10 ml Lysis buffer (25 mM HEPES (pH 7.5), 1% Triton X, 130 mM NaCl, 1 mM EDTA, 1 mM DTT, 25 mM β-glycerophosphate, […], 1 mM APMSF, 1 mM Sodium orthovanadate), the cells were lysed by treating twice with a homogenizer (POLYTRON) at 20000 rpm for 2 minutes. By using Anti-FLAG M2 Affinity Gel (Eastman Chemical), active form p38 MAP kinase was purified from the supernatant obtained by centrifugation (40000 rpm, 45 minutes).
(4) Measurement of the p38 MAP Kinase Inhibitory Activity
2.5 μL of a test compound dissolved in DMSO was added to 37.5 μL reaction solution (25 mM HEPES (pH 7.5), 10 mM Magnesium Acetate) containing 260 ng active form p38 MAP kinase and 1 μg Myelin Basic Protein, which was maintained at 30° C. for 5 minutes. The reaction was initiated by adding 10 μL ATP solution (2.5 μM ATP, 0.1 μCi [g-^32P]ATP). After the reaction was performed at 30° C. for 60 minutes, the reaction was stopped by adding 50 μL 20% TCA solution. After the reaction solution was allowed to stand at 0° C. for 20 minutes, an acid insoluble fraction was transferred to GF/C filter (Packard Japan) using Cell Harvester (Packard Japan) and washed with 250 mM H3PO4. After drying at 45° C. for 60 minutes, […] Microscint 0 (Packard Japan) was added and the radioactivity was measured with a TopCount (Packard Japan). The concentration (IC50 value) necessary for inhibiting uptake of ^32P into an acid insoluble fraction by 50% was calculated with PRISM 2.01 (Graphpad Software).

T1 sequence (Q16539 whole entry): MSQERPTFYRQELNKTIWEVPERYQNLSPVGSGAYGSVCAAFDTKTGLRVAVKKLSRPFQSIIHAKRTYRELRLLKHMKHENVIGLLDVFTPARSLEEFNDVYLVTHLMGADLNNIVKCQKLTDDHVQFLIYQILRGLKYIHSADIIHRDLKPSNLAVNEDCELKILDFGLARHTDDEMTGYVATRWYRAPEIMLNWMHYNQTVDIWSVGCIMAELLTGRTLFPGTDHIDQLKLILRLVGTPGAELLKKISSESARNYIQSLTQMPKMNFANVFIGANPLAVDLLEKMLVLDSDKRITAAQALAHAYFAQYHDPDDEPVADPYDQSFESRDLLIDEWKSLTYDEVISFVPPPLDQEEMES

One may read the IC50 as the concentration that gives 50% inhibition. Low readings indicate inhibition by little substance, high ones a need for much substance. For `Cc1cccc(-c2nc3cccnn3c2-c2ccnc(F)c2)c1` [Example 4, 3-(2-fluoropyridin-4-yl)-2-(3-methylphenyl)imidazo[1,2-b]pyridazine], the values for the IC50 in assay [1], in assay [2] and in assay [3] were 1.52 µM, 0.32 µM and 0.16 µM, respectively.

`Cc1cccc(-c2nc3cccnn3c2-c2ccnc(NCC3CC3)c2)c1` [Example 5, N-(Cyclopropylmethyl)-4-[2-(3-methylphenyl)imidazo[1,2-b]pyridazin-3-yl]pyridin-2-amine]: the IC50 in assay [1] was 0.011 µM; in assay [2], 0.0039 µM; in assay [3], 0.0025 µM.

On to `Cc1cccc(-c2nc3ccc(N(C)C)nn3c2-c2ccnc(NC3CCCCC3)c2)c1` [Example 7, 3-[2-(cyclohexylamino)pyridin-4-yl]-N,N-dimethyl-2-(3-methylphenyl)imidazo[1,2-b]pyridazin-6-amine], for which the figures for the IC50 in assay [1], in assay [2] and in assay [3] were 0.0051 µM, 0.0001 µM and 0.0087 µM, respectively.

With `CC(=O)Nc1cc(-c2c(-c3cccc(C)c3)nc3ccc(Cl)nn23)ccn1` [Example 17, N-{4-[6-Chloro-2-(3-methylphenyl)imidazo[1,2-b]pyridazin-3-yl]pyridin-2-yl}acetamide], the results for the IC50 in assay [1], in assay [2] and in assay [3] were 0.22 µM, 0.12 µM and 0.023 µM, respectively.

Consider `Cc1ccc(C(=O)Nc2cc(-c3c(-c4cccc(C)c4)nc4cccnn34)ccn2)cc1` [Example 20-1, 4-methyl-N-{4-[2-(3-methylphenyl)imidazo[1,2-b]pyridazin-3-yl]pyridin-2-yl}benzamide], for which the values for the IC50 in assay [1], in assay [2] and in assay [3] were 0.073 µM, 0.018 µM and 0.0084 µM, respectively.

Consider `COc1ccc(C(=O)Nc2cc(-c3c(-c4ccc(F)c(C)c4)nc4cccnn34)ccn2)cc1` [Example 21-16, N-{4-[2-(4-fluoro-3-methylphenyl)imidazo[1,2-b]pyridazin-3-yl]pyridin-2-yl}-4-methoxybenzamide], for which the IC50 in assay [1] came out at 0.041 µM; in assay [2], 0.014 µM; in assay [3] it was 0.0012 µM.

In the case of `Cc1cccc(-c2nc3cccnn3c2-c2ccnc(NC(=O)Nc3ccccc3)c2)c1` [Example 26, N-{4-[2-(3-Methylphenyl)imidazo[1,2-b]pyridazin-3-yl]pyridin-2-yl}-N′-phenylurea], the figures for the IC50 in assay [1], in assay [2] and in assay [3] were 0.077 µM, 0.33 µM and 0.022 µM, respectively.

For `Cc1cc(-c2nc3cccnn3c2-c2ccnc(NC(=O)c3ccc(F)cc3)c2)ccc1F` [Example 41-1, 4-fluoro-N-{4-[2-(4-fluoro-3-methylphenyl)imidazo[1,2-b]pyridazin-3-yl]pyridin-2-yl}benzamide], the IC50 in assay [1] was 0.035 µM; in assay [2] it was 0.015 µM; in assay [3] it was 0.0081 µM.

With `Cc1cc(-c2nc3cccnn3c2-c2ccnc(NC(=O)C3CC3)c2)ccc1F` [Example 42-3, N-{4-[2-(4-fluoro-3-methylphenyl)imidazo[1,2-b]pyridazin-3-yl]pyridin-2-yl}cyclopropanecarboxamide], the figures for the IC50 in assay [1], in assay [2] and in assay [3] were 0.035 µM, 0.0095 µM and 0.0087 µM, respectively.

For the molecule `CSCC(=O)Nc1cc(-c2c(-c3ccc(F)c(C)c3)nc3cccnn23)ccn1` [Example 42-6, N-{4-[2-(4-fluoro-3-methylphenyl)imidazo[1,2-b]pyridazin-3-yl]pyridin-2-yl}-2-(methylthio)acetamide], the IC50 in assay [1] was 0.011 µM; in assay [2], 0.0061 µM; in assay [3], 0.0077 µM.

Consider `Cc1cc(-c2nc3cccnn3c2-c2ccnc(NC(=O)c3ccc4ncsc4c3)c2)ccc1F` [Example 42-35, N-{4-[2-(4-fluoro-3-methylphenyl)imidazo[1,2-b]pyridazin-3-yl]pyridin-2-yl}-1,3-benzothiazole-6-carboxamide], for which the results for the IC50 in assay [1], in assay [2] and in assay [3] were 0.0062 µM, 0.0025 µM and 0.0039 µM, respectively.

With `Cc1cc(-c2nc3cccnn3c2-c2ccnc(NC(=O)c3ccc4ncccc4c3)c2)ccc1F` [Example 42-36, N-{4-[2-(4-fluoro-3-methylphenyl)imidazo[1,2-b]pyridazin-3-yl]pyridin-2-yl}-6-quinolinecarboxamide], the IC50 came to 0.011 µM in assay [1], 0.0071 µM in assay [2] and 0.0034 µM in assay [3].

In the case of `Cc1cc(-c2nc3cccnn3c2-c2ccnc(NC(=O)NCCO)c2)ccc1F` [Example 51-11, N-{4-[2-(4-fluoro-3-methylphenyl)imidazo[1,2-b]pyridazin-3-yl]pyridin-2-yl}-N′-(2-hydroxyethyl)urea], the figures for the IC50 in assay [1], in assay [2] and in assay [3] were 0.064 µM, 0.01 µM and 0.007 µM, respectively.

`Cc1cc(-c2nc3cccnn3c2-c2ccnc(NC(=O)NCCC#N)c2)ccc1F` [Example 51-14, N-(2-cyanoethyl)-N′-{4-[2-(4-fluoro-3-methylphenyl)imidazo[1,2-b]pyridazin-3-yl]pyridin-2-yl}urea]: the IC50 in assay [1] stood at 0.032 µM; in assay [2], 0.001 µM; in assay [3] it was 0.0049 µM.

On to `Cc1cccc(-c2nc3cccnn3c2-c2ccnc(Nc3ccccc3C)c2)c1` [Example Compound 6-10, N-(2-methylphenyl)-4-[2-(3-methylphenyl)imidazo[1,2-b]pyridazin-3-yl]pyridin-2-amine], for which the IC50 amounted to 0.082 µM in assay [1], 0.0098 µM in assay [2] and 0.0026 µM in assay [3].

As for `Cc1cccc(-c2nc3cccnn3c2-c2ccnc(NC(=O)C3CC3)c2)c1` [Example compound 20-10, N-{4-[2-(3-methylphenyl)imidazo[1,2-b]pyridazin-3-yl]pyridin-2-yl}cyclopropanecarboxamide], the IC50 in assay [1] was determined as 0.025 µM; in assay [2], 0.0054 µM; in assay [3] it was 0.0097 µM.

In the case of `Cc1cccc(-c2nc3cccnn3c2-c2ccnc(NC(=O)c3ccc(F)cc3)c2)c1` [Example compound 20-11, 4-fluoro-N-{4-[2-(3-methylphenyl)imidazo[1,2-b]pyridazin-3-yl]pyridin-2-yl}benzamide], the results for the IC50 in assay [1], in assay [2] and in assay [3] were 0.04 µM, 0.0038 µM and 0.014 µM, respectively.

Regarding `CCNC(=O)Nc1cc(-c2c(-c3ccc(F)c(C)c3)nc3cccnn23)ccn1` [Example compound 28-3, N-ethyl-N′-{4-[2-(4-fluoro-3-methylphenyl)imidazo[1,2-b]pyridazin-3-yl]pyridin-2-yl}urea], the IC50 was 0.57 µM in assay [1], 0.045 µM in assay [2] and 0.0079 µM in assay [3].

As for `Cc1cc(-c2nc3cccnn3c2-c2ccnc(NC(=O)NC(C)C)c2)ccc1F` [Example compound 28-5, N-{4-[2-(4-fluoro-3-methylphenyl)imidazo[1,2-b]pyridazin-3-yl]pyridin-2-yl}-N′-isopropylurea], the figures for the IC50 in assay [1], in assay [2] and in assay [3] were 0.064 µM, 0.064 µM and 0.014 µM, respectively.
